Data taken from patent US5512574A, “Quinuclidine and azabicyclo 2.2.1! heptane pyrazinyl ethers as muscarinic agonists” (American Home Products Corporation, priority 1995, dated 1996).
Where two headings read alike, the source gives them in different places.

Experiments:
[1] = target: T1, M1 acetylcholine receptors (Homo sapiens, UniProt P11229); test: stimulation of phosphoinositide (PI) hydrolysis in CHO cells expressing M1 acetylcholine receptors; assay type: cell-based; conditions: for Emax: CHO, 1 h; for EC50: read-out: m1 agonism [P.I.] EC50; for m1 CHO @ 30 × Ki % Carbachol / m1 CHO % Carbachol (at Ki): PI hydrolysis, 60 min; for m1 CHO @ 30 × Ki % Carbachol: at 30 × Ki
T1 sequence (P11229 1-460): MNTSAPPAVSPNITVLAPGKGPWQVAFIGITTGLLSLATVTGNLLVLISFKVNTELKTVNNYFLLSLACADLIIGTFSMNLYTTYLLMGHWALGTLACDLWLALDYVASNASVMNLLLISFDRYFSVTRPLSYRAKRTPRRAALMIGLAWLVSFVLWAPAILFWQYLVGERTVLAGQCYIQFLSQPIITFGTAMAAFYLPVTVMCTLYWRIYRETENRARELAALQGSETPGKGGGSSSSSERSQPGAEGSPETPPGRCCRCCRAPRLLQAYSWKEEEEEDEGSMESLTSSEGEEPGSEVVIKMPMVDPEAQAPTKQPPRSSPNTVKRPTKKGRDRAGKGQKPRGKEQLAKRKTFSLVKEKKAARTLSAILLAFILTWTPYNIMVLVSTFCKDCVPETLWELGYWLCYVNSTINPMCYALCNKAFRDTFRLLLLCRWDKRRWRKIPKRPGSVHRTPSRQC
Experimental: (§1) The tubes are incubated for one hour at 37° C. The reaction is quenched with chloroform and the phosphatidyl inositols are extracted with methanol and chloroform. Phase separation is assured with the addition of methanol and water followed by centrifugation. The tritiated inositol phosphates are recovered on BioRad AG 1-X8 anion exchange resin in the formate cycle. After washing the resin with water and myo-inositol, the inositol phosphates are eluted with ammonium formate/formic acid, collected and subjected to liquid scintillation spectroscopy.
(§2) Cloned human receptors in CHO cells were used in these studies.

m2 muscarinic receptor [2] = target: T2, m2 muscarinic receptor (Homo sapiens, UniProt P08172); test: biochemical; assay type: binding
T2 sequence (P08172 1-466): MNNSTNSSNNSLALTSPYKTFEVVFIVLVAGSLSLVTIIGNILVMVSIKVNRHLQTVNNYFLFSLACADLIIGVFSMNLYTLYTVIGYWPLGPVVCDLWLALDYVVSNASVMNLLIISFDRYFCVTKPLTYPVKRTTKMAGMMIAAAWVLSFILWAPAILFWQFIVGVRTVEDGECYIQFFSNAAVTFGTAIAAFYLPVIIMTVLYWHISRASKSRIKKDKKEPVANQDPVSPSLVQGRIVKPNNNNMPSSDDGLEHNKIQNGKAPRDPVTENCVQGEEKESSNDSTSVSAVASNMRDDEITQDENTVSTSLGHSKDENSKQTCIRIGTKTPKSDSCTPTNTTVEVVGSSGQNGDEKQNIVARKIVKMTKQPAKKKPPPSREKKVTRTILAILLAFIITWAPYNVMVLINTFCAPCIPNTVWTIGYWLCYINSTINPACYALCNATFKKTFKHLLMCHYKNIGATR

m1 muscarinic receptor [3] = target: T3, m1 muscarinic receptor (Homo sapiens, UniProt P11229); test: biochemical; assay type: binding
T3 sequence (P11229 1-460): T1 sequence (P11229 1-460)

[4] = target: M1 acetylcholine receptors (Homo sapiens, UniProt P11229); test: stimulation of phosphoinositide (PI) hydrolysis in CHO cells expressing M1 acetylcholine receptors; assay type: cell-based
Experimental: as §1, §2

m1 muscarinic receptor [5] = target: m1 muscarinic receptor (Homo sapiens, UniProt P11229); test: biochemical; assay type: binding; remark: listed apart in the source
m2 muscarinic receptor [6] = target: T2, m2 muscarinic receptor; test: m2 agonism (cAMP) / functional selectivity; assay type: cell-based; conditions: for EC50: cAMP, m2; for Functional Selectivity-m2/m1: ratio of m2 (cAMP) EC50 to m1 (PI) EC50
Text: Such diseases include presenile and senile dementia (also known as Alzheimer's Disease and Senile Dementia of the Alzheimer Type, respectively), Huntington's Chorea, Tardive Dyskinesia, Hyperkinesia, Mania and Tourette's Syndrome. Alzheimer's Disease is a slowly progressive neurological disorder characterized by deficits in cognitive function including memory, attention, language and visual perception capabilities.
as §2

[7] = read-out: m1 CHO @ 30 × Ki % Carbachol, PI hydrolysis, m1 CHO, at 30 × Ki, percentage of mean carbachol value
[8] = read-out: [3H]QNB Binding Ki(μM) m2
[9] = m1, cloned human receptors in CHO cells, read-out: [3H]QNB Binding Ki(μM) m1
[10] = m2, cloned human receptors in CHO cells, read-out: [3H]QNB Binding Ki(μM) m2
[11] = read-out: m1 CHO % Carbachol (at Ki), PI hydrolysis, m1 CHO, at Ki, percentage of mean carbachol value
[12] = read-out: m1 CHO @ 30 × Ki % Carbachol
[13] = percentage of mean carbachol value
[14] = read-out: m1 CHO % Carbachol (at Ki)

`CCCCCCOc1nccnc1O[C@H]1CN2CC[C@@H]1C2` (relative stereo) [Example 1, (±)-(endo)-3-(3-Hexyloxy-pyrazin-2-yloxy)-1-aza-bicyclo 2.2.1!heptane] was tested, and the Emax [1, 7] was 102%, the Ki (m2 muscarinic receptor [2]; [8]) was 0.02 µM and the Ki (m1 muscarinic receptor [3]; [9]) was 0.03 µM.

`CCCCCCSc1nccnc1O[C@H]1CN2CC[C@@H]1C2` (relative stereo) [Example 2, (endo)-3-(3-Hexylsulfanyl-pyrazin-2-yloxy)-1-aza-bicyclo 2.2.1!heptane] gave an Emax [1, 7] of 97.1%, a Ki (m2 muscarinic receptor [2]; [10]) of 0.013 µM and a Ki (m1 muscarinic receptor [3]; [9]) of 0.0067 µM.

With `CCCCCCSc1nccnc1O[C@@H]1CN2CC[C@@H]1C2` (relative stereo) [Example 6, (exo)-3-(3-Hexylsulfanyl-pyrazin-2-yloxy)-1-azabicyclo 2.2.1!heptane] the Emax [1, 11] was 104%, the Ki (m2 muscarinic receptor [2]; [10]) was 0.088 µM and the Ki (m1 muscarinic receptor [3]; [9]) was 0.123 µM.

With `CCCCCCOc1nccnc1S[C@@H]1CN2CC[C@@H]1C2` (relative stereo) [Example 11, (exo)-3-(3-Hexyloxy-pyrazin-2-ylsulfanyl)-1-azabicyclo 2.2.1!heptane] the Emax [1, 11] was 41.6% and the Ki (m1 muscarinic receptor [3]; [9]) was 0.292 µM.

`CCCCCCSc1nccnc1S[C@@H]1CN2CC[C@@H]1C2` (relative stereo) [Example 12, (exo)-3-(3-Hexylsulfanyl-pyrazin-2-ylsulfanyl)-1-azabicyclo-2.2.1!heptane] gave an Emax [1, 12] of 62%, a Ki (m2 muscarinic receptor [2]; [8]) of 0.064 µM and a Ki (m1 muscarinic receptor [3]; read-out: [3H]QNB Binding Ki(μM) m1) of 0.03 µM.

For `CCCCCCOc1nccnc1O[C@H]1CN2CC[C@@H]1C2` (single isomer, unassigned), the EC50 [4] was 0.0055 µM and the Ki (m1 muscarinic receptor [5]) was 0.032 µM.

`CCCCCCSc1nccnc1O[C@H]1CN2CC[C@@H]1C2` (single isomer, unassigned) [2(+), (+)-(endo)-3-(3-hexylsulfanyl-pyrazin-2-yloxy)-1-aza-bicyclo 2.2.1!heptane] gave an Emax [1, 7] of 31.1%, a Ki (m2 muscarinic receptor [2]; [10]) of 0.063 µM and a Ki (m1 muscarinic receptor [3]; [9]) of 0.027 µM.

In the case of `CCCCCCSc1nccnc1O[C@H]1CN2CC[C@@H]1C2` (single isomer, unassigned) [Example 2(-), (-)-(endo)-3-(3-hexylsulfanyl-pyrazin-2-yloxy)-1-aza-bicyclo 2.2.1!heptane], the Emax [1, 11] is reported as 46.5%, the EC50 [1] is reported as 0.0004 µM and the Ki (m2 muscarinic receptor [2]; [10]) is reported as 0.0045 µM. The EC50 (m2 muscarinic receptor [6]) was 0.016 µM and the “Functional Selectivity-m2/m1” value (m2 muscarinic receptor [6]) was 40.

`CCCCCCOc1nccnc1O[C@H]1CN2CC[C@@H]1C2` (single isomer, unassigned) [Example 4] gave a Ki (m2 muscarinic receptor [2]; [8]) of 0.024 µM.

`CCCCCCOc1nccnc1O[C@H]1CN2CC[C@@H]1C2` (single isomer, unassigned) [Example 5, (+)-endo-3-(3-Hexyloxy-pyrazin-2-yloxy)-1-azabicyclo 2.2.1!heptane] was tested, and the “m1 CHO @ 30 × Ki % Carbachol” value [1, 13] was 51%, the Ki (m2 muscarinic receptor [2]; [8]) was 0.071 µM and the Ki (m1 muscarinic receptor [3]; [9]) was 0.083 µM.

In the case of `CCCCCCSc1nccnc1O[C@@H]1CN2CC[C@@H]1C2` (single isomer, unassigned) [Example 7, (+)-exo-3-(3-Hexylsulfanyl-pyrazin-2-yloxy)-1-azabicyclo 2.2.1!heptane], the “m1 CHO % Carbachol (at Ki)” value [1, 13] is reported as 107.3%, the EC50 [1] is reported as 0.0103 µM and the Ki (m2 muscarinic receptor [2]; [10]) is reported as 0.059 µM. The EC50 (m2 muscarinic receptor [6]) was 2.4 µM and the “Functional Selectivity-m2/m1” value (m2 muscarinic receptor [6]) was 240.

For `CCCCCCSc1nccnc1O[C@@H]1CN2CC[C@@H]1C2` (single isomer, unassigned) [Example 8, (-)-(exo)-3-(3-Hexylsulfanyl-pyrazin-2-yloxy)-1-azabicyclo 2.2.1!heptane], the “m1 CHO % Carbachol (at Ki)” value [1, 13] was 44.2% and the Ki (m2 muscarinic receptor [2]; [10]) was 0.008 µM.

`CCCCCCOc1nccnc1O[C@@H]1CN2CC[C@@H]1C2` (single isomer, unassigned) [Example 9, (-)-(exo)-3-(3-Hexyloxy-pyrazin-2-yloxy)-1-azabicyclo 2.2.1!heptane] was tested, and the “m1 CHO @ 30 × Ki % Carbachol” value [1, 13] was 56% and the Ki (m2 muscarinic receptor [2]; [8]) was 0.774 µM.

For `CCCCCCOc1nccnc1O[C@@H]1CN2CC[C@@H]1C2` (single isomer, unassigned) [Example 10, (+)-(exo)-3-(3-Hexyloxy-pyrazin-2-yloxy)-1-azabicyclo 2.2.1!heptane], the “m1 CHO @ 30 × Ki % Carbachol” value [1, 13] was 9% and the Ki (m2 muscarinic receptor [2]; [8]) was 0.149 µM.

`CCCCCCSc1nccnc1SC1CN2CCC1CC2` (stereo not shown) [Example 13, 3-(3-Hexylsulfanyl-pyrazin-2-ylsulfanyl)-1-azabicyclo 2.2.2!octane] was tested, and the Emax [1, 12] was 45.9% and the Ki (m1 muscarinic receptor [3]) was 0.029 µM.

Compound `CCCCCCOc1nccnc1SC1CN2CCC1CC2` (stereo not shown) [Example 14, 3-(3-Hexyloxy-pyrazin-2-ylsulfanyl)-1-azabicyclo 2.2.2!octane] has an Emax [1, 14] of 29.5% and a Ki (m1 muscarinic receptor [3]) of 0.076 µM.

For `CCCCCCOc1nccnc1OC1CN2CCC1CC2` (stereo not shown) [Example 15], the Emax [1, 14] was 59.6%, the Ki (m2 muscarinic receptor [2]; [3H]QNB Binding Ki(μM) m2, m2, cloned human receptors in CHO cells) was 0.124 µM and the Ki (m1 muscarinic receptor [3]) was 0.14 µM.
